# Target: T1, human Syk (GST-Syk) (Homo sapiens, UniProt P43405)
# T1 construct: A cDNA fragment encoding human Syk openreading frame was cloned; made in house; host or cells: Sf21 insect cells (baculovirus, transfer vector pAcG2T)
# Test: Syk tyrosine kinase inhibitory assay
# Format: biochemical
# Settings: Table 11; read-out: Activity grade
# Procedure, shortened: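 GST-tagged human Syk from baculovirus/Sf21, 0.65 nM final, with 3 μM biotinylated 30-residue activation-loop peptide and 30 μM ATP in Tris pH 8.0/MgCl2 buffer, 0.25% DMSO; 1 h at room temperature. Phosphopeptide captured on streptavidin, detected by europium-labelled anti-phosphotyrosine 4G10 time-resolved fluorescence.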
row,IC50 [nM],Structure (SMILES)
1,< 500,COc1ccc(-c2cc3nccn3c(Nc3cccc(N)n3)n2)cc1OC [Example 12-29]
2,< 500,COc1ccc(-c2cc3nccn3c(Nc3ccc(Cl)nc3)n2)cc1OC [Example 12-30]
3,500 to 2000,COc1ccc(-c2cc3nccn3c(NC3=NNCS3)n2)cc1OC [Example 12-31]
4,< 500,COc1ccc(-c2cc3nccn3c(Nc3ccccc3)n2)cc1[N+](=O)[O-] [Example 12-32]
5,< 500,COc1cc(-c2cc3nccn3c(Nc3ccccc3)n2)ccc1OC(C)=O [Example 12-33]
6,< 500,COc1cc(-c2cc3nccn3c(Nc3ccccc3)n2)ccc1OCCCN1CCSCC1 [Example 12-34]
7,2000 to 10000,CCN(CC)CCOc1ccc(-c2cc3nccn3c(Nc3ccccc3)n2)cc1OC [Example 12-35]
8,< 500,COc1cc(-c2cc3nccn3c(Nc3ccccc3)n2)ccc1OCCCN1CCN(C)CC1 [Example 12-36]
9,< 500,COc1ccc(Nc2nc(-c3ccc(N4CCOCC4)c(OC)c3)cc3nccn23)cc1 [Example 12-37]
10,< 500,COc1ccc(Nc2nc(-c3ccc(NCCCN4CCOCC4)c(OC)c3)cc3nccn23)cc1 [Example 12-38]
11,< 500,COc1cc(-c2cc3nccn3c(Nc3ccccc3)n2)ccc1NCCCN1CCN(C)CC1 [Example 12-39]
12,< 500,COc1cc(-c2cc3nccn3c(Nc3ccccc3)n2)ccc1NCCCN1CCCC1=O [Example 12-40]
13,< 500,COCCN(C)c1ccc(-c2cc3nccn3c(Nc3ccccc3)n2)cc1OC [Example 12-41]
14,< 500,COCCN(C)c1ccc(-c2cc3nccn3c(Nc3ccc(C)cc3)n2)cc1OC [Example 12-42]
15,< 500,COCCN(C)c1ccc(-c2cc3nccn3c(Nc3ccc(C(F)(F)F)cc3)n2)cc1OC [Example 12-43]
16,< 500,COCCN(C)c1ccc(-c2cc3nccn3c(Nc3ccccc3S(C)(=O)=O)n2)cc1OC [Example 12-44]

row,IC50 [nM],Structure (SMILES)
1,< 500,COc1ccc(-c2cc3nccn3c(Nc3cnccc3C(N)=O)n2)cc1OC [Example 12-45]
2,< 500,COCCN(C)c1ccc(-c2cc3nccn3c(Nc3ccc(Br)cc3)n2)cc1OC [Example 12-46]
3,< 500,COc1cc(-c2cc3nccn3c(Nc3ccc(C)cc3)n2)ccc1N1CCOCC1 [Example 12-47]
4,< 500,COc1cc(-c2cc3nccn3c(Nc3ccc(Cl)cn3)n2)ccc1N1CCOCC1 [Example 12-48]
5,< 500,COc1cc(-c2cc3nccn3c(Nc3ccc(C(F)(F)F)cc3)n2)ccc1N1CCOCC1 [Example 12-49]
6,< 500,CCSc1nc(-c2ccc(N(C)CCOC)c(OC)c2)cc2nccn12 [Example 12-50]
7,< 500,COCCN(C)c1ccc(-c2cc3nccn3c(Nc3ccc(OC)cc3)n2)cc1OC [Example 12-51]
8,< 500,COc1ccc(Nc2nc(-c3ccc(N(C)C)c(OC)c3)cc3nccn23)cc1 [Example 12-52]
9,< 500,COc1cc(-c2cc3nccn3c(Nc3ccc(Br)cc3)n2)ccc1N1CCOCC1 [Example 12-53]
10,< 500,COc1cc(-c2cc3nccn3c(Nc3ccccc3)n2)ccc1N1CCOCC1 [Example 12-54]
11,< 500,COc1ccc(Nc2nc(-c3ccc(N(C)CCCN4CCOCC4)c(OC)c3)cc3nccn23)cc1 [Example 12-55]
12,< 500,COCCCN(C)c1ccc(-c2cc3nccn3c(Nc3ccc(OC)cc3)n2)cc1OC [Example 12-56]
13,< 500,COc1cc(-c2cc3nccn3c(Nc3ccccc3S(C)(=O)=O)n2)ccc1N1CCOCC1 [Example 12-57]
14,< 500,COc1cc(-c2cc3nccn3c(Nc3ccc4cn[nH]c4c3)n2)ccc1N1CCOCC1 [Example 12-59]
15,< 500,COc1cc(-c2cc3nccn3c(Nc3cccc(S(C)(=O)=O)c3)n2)ccc1N1CCOCC1 [Example 12-60]
16,500 to 2000,COc1ccc(-c2cc3nccn3c(Nc3cnccc3C(N)=O)n2)cc1OC [Example 12-61]

# Same assay, conditions: Table 13
row,Activity grade,Structure (SMILES)
1,C-D,Clc1ccc(-c2cc3ncnn3c(Sc3ccccc3)n2)cn1 [Example 14-9]
2,C-D,CCCCCCSc1nc(-c2ccc(OC)c(OC)c2)cc2nccn12 [Example 14-18]

# Same assay, conditions: Table 13; read-out: Activity grade
row,IC50 [nM],Structure (SMILES)
1,500 to 2000,COc1ccc(CSc2nc(-c3ccc(OC)c(OC)c3)cc3nccn23)cc1 [Example 14-1]
2,< 500,COc1ccc(-c2cc3nccn3c(SCc3ccccc3)n2)cc1OC [Example 14-2]
3,500 to 2000,COc1ccc(-c2cc3nccn3c(Oc3cccc(C)c3)n2)cc1OC [Example 14-3]
4,500 to 2000,COc1ccc(-c2cc3nccn3c(Oc3ccccc3Br)n2)cc1OC [Example 14-4]
5,500 to 2000,COc1ccc(-c2cc3nccn3c(Oc3cccc(Br)c3)n2)cc1OC [Example 14-5]
6,500 to 2000,COc1ccc(-c2cc3nccn3c(Oc3ccc(Br)cc3)n2)cc1OC [Example 14-6]
7,2000 to 10000,c1ccc(Sc2nc(-c3ccccc3)cc3ncnn23)cc1 [Example 14-7]
8,2000 to 10000,Oc1ccc(Sc2nc(-c3ccccc3)cc3ncnn23)cc1 [Example 14-8]
9,< 500,COc1ccc(-c2cc3ncnn3c(Sc3ccc(/C=C/C(=O)O)cc3)n2)cc1OC [Example 14-10]
10,< 500,COc1ccc(-c2cc3ncnn3c(Sc3ccc(NCC(=O)O)cc3)n2)cc1OC [Example 14-11]
11,500 to 2000,COc1ccc(-c2cc3ncnn3c(Oc3ccc(CCC(=O)O)cc3)n2)cc1OC [Example 14-12]
12,2000 to 10000,COc1ccc(-c2cc3nccn3c(SCc3cccc(C(F)(F)F)c3)n2)cc1OC [Example 14-13]
13,500 to 2000,CCOC(=O)C(C)Sc1nc(-c2ccc(OC)c(OC)c2)cc2nccn12 (centres unmarked) [Example 14-14]
14,500 to 2000,COc1ccc(-c2cc3nccn3c(SCc3ccc(Cl)cc3)n2)cc1OC [Example 14-15]
15,< 500,COc1ccc(-c2cc3nccn3c(SCC(F)(F)F)n2)cc1OC [Example 14-16]
16,< 500,CCCSc1nc(-c2ccc(OC)c(OC)c2)cc2nccn12 [Example 14-17]
17,500 to 2000,COc1ccc(-c2cc3nccn3c(SCCN(C(C)C)C(C)C)n2)cc1OC [Example 14-19]
18,< 500,CCC(C)Sc1nc(-c2ccc(OC)c(OC)c2)cc2nccn12 (centres unmarked) [Example 14-20]
19,< 500,COc1ccc(-c2cc3nccn3c(SC3CCCC3)n2)cc1OC [Example 14-21]

# Same assay, conditions: Table 17; IC50 classes; read-out: Activity grade
row,IC50 [nM],Structure (SMILES)
1,< 500,CCN(CC)CCNc1ccc(C(N)=O)c(Nc2nc(-c3ccc(OC)c(OC)c3)cc3nccn23)c1 [Example 12]
2,< 500,COc1ccc(-c2cc3nccn3c(Nc3cc(N(C)C)ccc3C(N)=O)n2)cc1OC [Example 13]

# Same assay, conditions: in vitro; compounds as yielded by solid phase synthesis, purity about 40 to 90%
row,Activity grade (IC50 class),Structure (SMILES)
1,C-D,COc1ccc(-c2cc3nccn3c(Sc3ccc(CC(=O)O)cc3)n2)cc1OC [Example 13-19]

# Same assay, conditions: in vitro; compounds as yielded by solid phase synthesis, purity about 40 to 90%; read-out: Activity grade (IC50 class)
row,IC50 [nM],Structure (SMILES)
1,< 500,CCN(CC)CCNc1ccc(C(N)=O)c(Nc2nc(-c3ccc(OC)c(OC)c3)cc3nccn23)c1 [Example 12]
2,500 to 2000,COc1ccc(-c2cc3nccn3c(Sc3cc(C)ccc3C)n2)cc1OC [Example 13-1]
3,< 500,COc1ccc(-c2cc3nccn3c(Sc3ccccc3OC)n2)cc1OC [Example 13-2]
4,< 500,COc1ccc(-c2cc3nccn3c(Sc3cccc(N)c3)n2)cc1OC [Example 13-3]
5,< 500,COc1ccc(-c2cc3nccn3c(Sc3ccc(N)cc3)n2)cc1OC [Example 13-4]
6,2000 to 10000,COc1ccc(-c2cc3nccn3c(Sc3cccc(Cl)c3Cl)n2)cc1OC [Example 13-5]
7,< 500,COc1ccc(-c2cc3nccn3c(Sc3ccccc3Br)n2)cc1OC [Example 13-6]
8,< 500,COc1ccc(-c2cc3nccn3c(Sc3ccccc3CO)n2)cc1OC [Example 13-7]
9,< 500,COc1ccc(-c2cc3nccn3c(Sc3cc(OC)c(OC)c(OC)c3)n2)cc1OC [Example 13-8]
10,2000 to 10000,COc1ccc(-c2cc3nccn3c(Sc3c(C)cccc3C)n2)cc1OC [Example 13-9]
11,500 to 2000,COc1ccc(-c2cc3nccn3c(Sc3c(Cl)cccc3Cl)n2)cc1OC [Example 13-10]
12,< 500,COc1ccc(-c2cc3nccn3c(Sc3nc4ccccc4s3)n2)cc1OC [Example 13-11]
13,< 500,COc1ccc(-c2cc3nccn3c(Sc3nccn3C)n2)cc1OC [Example 13-12]
14,< 500,COc1ccc(-c2cc3nccn3c(Sc3ncccn3)n2)cc1OC [Example 13-13]
15,< 500,COc1ccc(-c2cc3nccn3c(Sc3ccc4c(c3)CNCC4)n2)cc1OC [Example 13-14]
16,< 500,COc1ccc(-c2cc3nccn3c(Sc3ccc(N4CCN(C)CC4)cc3)n2)cc1OC [Example 13-16]
17,< 500,COc1ccc(-c2cc3nccn3c(Sc3cccc(CC(O)O)c3)n2)cc1OC [Example 13-20]
18,2000 to 10000,COc1ccc(-c2cc3nccn3c(Sc3ccc(CCCC(=O)O)cc3)n2)cc1OC [Example 13-21]
19,< 500,COc1ccc(-c2cc3nccn3c(Sc3ccc(/C=C/C(=O)O)c(C)c3)n2)cc1OC [Example 13-22]
20,500 to 2000,COC(=O)C1CCc2cc(Sc3nc(-c4ccc(OC)c(OC)c4)cc4nccn34)ccc2C1 (centres unmarked) [Example 13-23]
21,< 500,COc1ccc(-c2cc3nccn3c(Sc3ccc(CCC(=O)O)cc3)n2)cc1O [Example 13-24]
22,< 500,COc1ccc(-c2cc3nccn3c(Sc3ccc(CCC(=O)O)cc3)n2)cc1OC(C)=O [Example 13-25]
23,< 500,COc1cc(-c2cc3nccn3c(Sc3ccc(CCC(=O)O)cc3)n2)ccc1OCc1ccccc1 [Example 13-26]
24,< 500,COc1cc(-c2cc3nccn3c(Sc3ccc(CCC(=O)O)cc3)n2)ccc1O [Example 13-27]
25,< 500,COc1cc(-c2cc3nccn3c(Sc3ccc(CCC(=O)O)cc3)n2)ccc1OCCN1CCOCC1 [Example 13-28]
26,< 500,COc1ccc(-c2cc3nccn3c(Sc3nc[nH]n3)n2)cc1OC [Example 13-29]
27,< 500,COc1ccc(-c2cc3nccn3c(Nc3cc(N(C)C)ccc3C(N)=O)n2)cc1OC [Example 13]
